Source: article PMC6863825, “Modulating multi-functional ERK complexes by covalent targeting of a recruitment site in vivo” (Nature Communications, 2019)

Biological target: T1, ERK2 (Rattus norvegicus, UniProt P63086)
T1 construct: gene Mapk1; full-length ERK2
Test: fluorescence anisotropy displacement of FITC D-site peptide; also protein NMR, intact MS, kinact/Ki
Format: binding

T1 sequence (P63086 2-358): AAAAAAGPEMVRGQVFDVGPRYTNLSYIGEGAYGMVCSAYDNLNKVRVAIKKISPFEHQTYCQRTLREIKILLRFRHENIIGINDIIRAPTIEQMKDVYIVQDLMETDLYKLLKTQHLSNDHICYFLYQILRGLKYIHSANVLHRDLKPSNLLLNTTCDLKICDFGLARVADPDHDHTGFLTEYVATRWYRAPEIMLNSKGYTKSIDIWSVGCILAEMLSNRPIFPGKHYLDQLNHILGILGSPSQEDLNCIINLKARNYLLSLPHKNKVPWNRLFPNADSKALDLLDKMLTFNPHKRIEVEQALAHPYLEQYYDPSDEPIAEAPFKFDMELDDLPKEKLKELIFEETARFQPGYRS

O=[N+]([O-])c1cnc(Sc2nnc(O)n2-c2ccc3c(c2)OCCO3)s1 [compound 1, BI-78D3]
Ki: 0.8 ± 0.2 µM
